Legend:
NCI-H358 (K-Ras G12C) = assay: CellTiter-Glo cell viability assay, NCI-H358; type: cell-based, human; conditions: Homo sapiens, NCI-H358, 120 h, NCI-H358, 5-day treatment; class symbols; read-out: Additional H358 Cell Viability assay data (K-Ras G12C, IC50)
Procedure, shortened: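 Compounds were dispensed directly onto K-Ras mutant cells and incubated until day 5, then plates were equilibrated to room temperature for about 30 minutes before CellTiter-Glo luminescence. Signals were normalized as (sample/average DMSO)*100 and fitted by four-parameter logistic fit.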

K-Ras G12C = K-Ras G12C (Homo sapiens (Human), UniProt P01116+P62937, G12C); assay: Ras-Raf (BRAF RBD) disruption / FRET / MOA assay, KRAS G12C; type: biochemical; conditions: KRAS G12C; Ras-Raf disruption/FRET/MOA assay; read-out: IC50* KRAS G12C FRET data
Procedure, shortened: (§1)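 TR-FRET read-out: a drop in ratio relative to DMSO wells marks disruption of the Ras:RAF complex, reported as IC50. Compounds (3-fold series, 10 points, top 30 μM final) incubated 3 h at 25° C before Eu-anti-His 10 nM and APC-anti-GST 50 nM, 1.5 h more.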

KRAS G12S = KRAS G12S (Homo sapiens (Human), UniProt P01116+P62937, G12S); assay: Ras-Raf (BRAF RBD) disruption / FRET / MOA assay, KRAS G12S; type: biochemical; conditions: Ras-Raf disruption/FRET/MOA assay; class symbols; read-out: KRAS G12S FRET data IC50
Procedure, shortened: as §1

KRAS G12D = KRAS G12D (Homo sapiens (Human), UniProt P01116+P62937, G12D); assay: Ras-Raf (BRAF RBD) disruption / FRET / MOA assay, KRAS G12D; type: biochemical; conditions: Ras-Raf disruption/FRET/MOA assay; class symbols; read-out: KRAS G12D FRET data IC50
Procedure, shortened: as §1

KRAS G12V = KRAS G12V (Homo sapiens (Human), UniProt P01116+P62937, G12V); assay: Ras-Raf (BRAF RBD) disruption / FRET / MOA assay, KRAS G12V; type: biochemical; conditions: read-out: IC50* KRAS G12V FRET data
Procedure, shortened: as §1

KRAS WT = KRAS WT (Homo sapiens (Human), UniProt P01116+P62937); assay: Ras-Raf (BRAF RBD) disruption / FRET / MOA assay, KRAS WT; type: biochemical; conditions: read-out: IC50* KRAS WT FRET data
Procedure, shortened: as §1

KRAS Q61H = KRAS Q61H (Homo sapiens (Human), UniProt P01116+P62937, Q61H); assay: Ras-Raf (BRAF RBD) disruption / FRET / MOA assay, KRAS Q61H; type: biochemical; conditions: Ras-Raf disruption/FRET/MOA assay; class symbols; read-out: KRAS Q61H FRET data IC50
Procedure, shortened: (§2)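 Compounds were tested as a 10-point 3-fold dilution series from 30 μM final for their ability to drive ternary complex formation between nucleotide-loaded Ras and cyclophilin A, displacing the BRAF RBD. After 3 h at 25° C., anti-His Eu-W1024 (10 nM) and anti-GST allophycocyanin (50 nM) were added for 1.5 h. A TR-FRET ratio decrease versus DMSO gave IC50.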

NRAS G12C = NRAS G12C (Homo sapiens (Human), UniProt P01111+P62937, G12C); assay: Ras-Raf (BRAF RBD) disruption / FRET / MOA assay, NRAS G12C; type: biochemical; conditions: read-out: IC50* NRAS G12C FRET data
Procedure, shortened: as §1

NRAS Q61R = NRAS Q61R (Homo sapiens (Human), UniProt P01111+P62937, Q61R); assay: Ras-Raf (BRAF RBD) disruption / FRET / MOA assay, NRAS Q61R; type: biochemical; conditions: NRAS Q61R; Ras-Raf disruption/FRET/MOA assay; read-out: IC50* NRAS Q61R FRET data
Procedure, shortened: as §2

NRAS Q61K = NRAS Q61K (Homo sapiens (Human), UniProt P01111+P62937, Q61K); assay: Ras-Raf (BRAF RBD) disruption / FRET / MOA assay, NRAS Q61K; type: biochemical; conditions: NRAS Q61K; Ras-Raf disruption/FRET/MOA assay; read-out: IC50* NRAS Q61K FRET data
Procedure, shortened: as §2

NRAS WT = NRAS WT (Homo sapiens (Human), UniProt P01111+P62937); assay: Ras-Raf (BRAF RBD) disruption / FRET / MOA assay, NRAS WT; type: biochemical; conditions: read-out: IC50* NRAS WT FRET data
Procedure, shortened: as §2

Sequence of K-Ras G12C (P01116-2 other isoform, or with tags, fused parts or gaps G12C): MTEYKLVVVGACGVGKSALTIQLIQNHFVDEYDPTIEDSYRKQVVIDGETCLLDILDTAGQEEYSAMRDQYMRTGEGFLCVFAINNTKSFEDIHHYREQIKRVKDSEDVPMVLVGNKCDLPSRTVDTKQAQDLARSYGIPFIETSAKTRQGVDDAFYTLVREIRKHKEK
Sequence of K-Ras G12C (P62937 whole entry): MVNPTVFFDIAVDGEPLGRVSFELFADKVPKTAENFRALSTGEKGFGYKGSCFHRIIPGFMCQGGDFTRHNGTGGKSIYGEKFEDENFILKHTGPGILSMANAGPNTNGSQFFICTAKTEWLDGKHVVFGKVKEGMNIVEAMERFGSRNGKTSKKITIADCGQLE
Sequence of KRAS G12S (P01116-2 other isoform, or with tags, fused parts or gaps G12S): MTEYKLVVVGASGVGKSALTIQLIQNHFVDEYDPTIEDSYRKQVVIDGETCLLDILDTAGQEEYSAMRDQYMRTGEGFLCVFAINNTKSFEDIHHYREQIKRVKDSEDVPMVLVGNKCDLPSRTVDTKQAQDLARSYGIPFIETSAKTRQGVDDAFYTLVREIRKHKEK
Sequence of KRAS G12S (P62937 whole entry): as the sequence (P62937 whole entry) above
Sequence of KRAS Q61H (P01116-2 other isoform, or with tags, fused parts or gaps Q61H): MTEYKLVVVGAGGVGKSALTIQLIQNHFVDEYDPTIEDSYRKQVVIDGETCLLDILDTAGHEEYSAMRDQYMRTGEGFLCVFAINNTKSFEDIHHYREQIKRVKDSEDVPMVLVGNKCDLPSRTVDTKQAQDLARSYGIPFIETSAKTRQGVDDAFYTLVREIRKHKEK
Sequence of KRAS Q61H (P62937 whole entry): as the sequence (P62937 whole entry) above
Sequence of NRAS Q61K (P01111 whole entry Q61K): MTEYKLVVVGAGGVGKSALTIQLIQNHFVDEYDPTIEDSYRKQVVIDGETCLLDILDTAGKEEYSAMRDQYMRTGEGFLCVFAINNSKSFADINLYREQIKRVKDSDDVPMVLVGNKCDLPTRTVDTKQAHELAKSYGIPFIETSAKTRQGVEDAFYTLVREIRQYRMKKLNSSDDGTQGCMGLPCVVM
Sequence of NRAS Q61K (P62937 whole entry): as the sequence (P62937 whole entry) above
Sequence of NRAS Q61R (P01111 whole entry Q61R): as the sequence (P01111 whole entry Q61K) above, with K61R counted along it
Sequence of NRAS Q61R (P62937 whole entry): as the sequence (P62937 whole entry) above
Sequence of NRAS G12C (P01111 whole entry G12C): as the sequence (P01111 whole entry Q61K) above, with G12C, K61Q counted along it
Sequence of NRAS G12C (P62937 whole entry): as the sequence (P62937 whole entry) above
Sequence of KRAS G12V (P01116-2 other isoform, or with tags, fused parts or gaps G12V): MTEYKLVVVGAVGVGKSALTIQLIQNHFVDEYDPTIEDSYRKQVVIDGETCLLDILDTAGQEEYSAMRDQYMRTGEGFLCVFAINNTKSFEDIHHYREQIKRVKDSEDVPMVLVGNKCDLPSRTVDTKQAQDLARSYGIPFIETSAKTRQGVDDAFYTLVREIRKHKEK
Sequence of KRAS G12V (P62937 whole entry): as the sequence (P62937 whole entry) above
Sequence of KRAS G12D (P01116-2 other isoform, or with tags, fused parts or gaps G12D): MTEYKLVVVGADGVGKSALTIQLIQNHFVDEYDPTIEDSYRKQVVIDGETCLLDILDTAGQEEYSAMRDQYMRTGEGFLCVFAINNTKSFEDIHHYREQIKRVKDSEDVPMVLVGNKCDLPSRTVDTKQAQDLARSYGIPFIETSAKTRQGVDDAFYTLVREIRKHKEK
Sequence of KRAS G12D (P62937 whole entry): as the sequence (P62937 whole entry) above
Sequence of NRAS WT (P01111 whole entry): as the sequence (P01111 whole entry Q61K) above, with K61Q counted along it
Sequence of NRAS WT (P62937 whole entry): as the sequence (P62937 whole entry) above
Sequence of KRAS WT (P01116-2 other isoform, or with tags, fused parts or gaps): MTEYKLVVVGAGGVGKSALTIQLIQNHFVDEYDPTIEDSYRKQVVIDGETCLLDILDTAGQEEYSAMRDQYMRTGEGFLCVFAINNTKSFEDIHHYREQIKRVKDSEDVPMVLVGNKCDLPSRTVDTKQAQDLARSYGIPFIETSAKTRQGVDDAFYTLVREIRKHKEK
Sequence of KRAS WT (P62937 whole entry): as the sequence (P62937 whole entry) above

Structure (SMILES)	IC50 (NCI-H358 (K-Ras G12C))	IC50 (K-Ras G12C)	IC50 (KRAS G12S)	IC50 (KRAS G12D)	IC50 (KRAS G12V)	IC50 (KRAS WT)	IC50 (KRAS Q61H)	IC50 (NRAS G12C)	IC50 (NRAS Q61R)	IC50 (NRAS Q61K)	IC50 (NRAS WT)
CO[C@@H](C)c1ncccc1-c1c2c3cc(ccc3n1CC(F)(F)F)-c1cccc(c1)C[C@H](NC(=O)[C@H](C(C)C)N1CC[C@]3(CCN(C(=O)C#CC(C)(C)N(C)C)C3)C1=O)C(=O)N1CCC[C@H](N1)C(=O)OCC(C)(C)C2 (atropisomer, axis not shown) [Example A689]	< 10 nM	< 10 nM	100 to 1000 nM	1000 to 10000 nM	1000 to 10000 nM	1000 to 10000 nM	100 to 1000 nM	< 10 nM	1000 to 10000 nM	1000 to 10000 nM	1000 to 10000 nM
CCn1c(-c2cccnc2[C@H](C)OC)c2c3cc(ccc31)-c1csc(n1)C[C@H](NC(=O)[C@H](C(C)C)N(C)C(=O)N(C)C1CN(C(=O)/C=C/C3CN(C)C3)C1)C(=O)N1CCC[C@H](N1)C(=O)OCC(C)(C)C2 (atropisomer, axis not shown) [Example A690]	100 to 1000 nM	100 to 1000 nM	100 to 1000 nM	1000 to 10000 nM	1000 to 10000 nM	100 to 1000 nM	100 to 1000 nM	100 to 1000 nM	100 to 1000 nM	100 to 1000 nM	100 to 1000 nM
CO[C@@H](C)c1ncccc1-c1c2c3cc(ccc3n1CC(F)(F)F)-c1cccc(c1)C[C@H](NC(=O)[C@@H](COC1CN(C(=O)C#CC3(C)OCCO3)C1)C(C)C)C(=O)N1CCC[C@H](N1)C(=O)OCC(C)(C)C2 (atropisomer, axis not shown) [Example A703]	10 to 100 nM	10 to 100 nM	> 10000 nM	> 10000 nM	1000 to 10000 nM	1000 to 10000 nM	1000 to 10000 nM	10 to 100 nM	> 10000 nM	> 10000 nM	1000 to 10000 nM
C=CC(=O)N1CC(N(C)C(=O)N(C)[C@H](C(=O)N[C@H]2Cc3nc(cs3)-c3ccc4c(c3)c(c(-c3cccnc3[C@H](C)OC)n4CC(F)(F)F)CC(C)(C)COC(=O)[C@@H]3CCCN(N3)C2=O)C(C)C)C1 (atropisomer, axis not shown) [Example A711]	< 10 nM	< 10 nM	100 to 1000 nM	100 to 1000 nM	100 to 1000 nM	10 to 100 nM	10 to 100 nM	< 10 nM	100 to 1000 nM	10 to 100 nM	10 to 100 nM
CCn1c(-c2cccnc2[C@H](C)OC)c2c3cc(ccc31)-c1csc(n1)C[C@H](NC(=O)[C@@H](COC1CN(C(=O)C#CC(C)(C)N(C)C)C1)C(C)C)C(=O)N1CCC[C@H](N1)C(=O)OCC(C)(C)C2 (atropisomer, axis not shown) [Example A721]	< 10 nM	< 10 nM	> 10000 nM	> 10000 nM	1000 to 10000 nM	> 10000 nM	1000 to 10000 nM	< 10 nM	> 10000 nM	> 10000 nM	1000 to 10000 nM
CO[C@@H](C)c1ncccc1-c1c2c3cc(ccc3n1CC(F)(F)F)-c1cccc(c1)C[C@H](NC(=O)[C@H](C(C)C)N(C)C(=O)[C@H]1CCN(C(=O)C#CC(C)(C)N(C)C)C1)C(=O)N1CCC[C@H](N1)C(=O)OCC(C)(C)C2 (atropisomer, axis not shown) [Example A727]	< 10 nM	< 10 nM	1000 to 10000 nM	1000 to 10000 nM	1000 to 10000 nM	1000 to 10000 nM	1000 to 10000 nM	< 10 nM	1000 to 10000 nM	1000 to 10000 nM	1000 to 10000 nM
CCn1c(-c2cccnc2)c2c3cc(ccc31)-c1csc(c1)C[C@H](NC(=O)[C@H](C(C)C)N(C)C(=O)[C@H]1CCN(C(=O)C#CCN3CCOCC3)C1)C(=O)N1CCC[C@H](N1)C(=O)OCC(C)(C)C2 [Example A205]	100 to 1000 nM	100 to 1000 nM	> 10000 nM	> 10000 nM	> 10000 nM	> 10000 nM	> 10000 nM	1000 to 10000 nM	> 10000 nM	> 10000 nM	> 10000 nM
C=CC(=O)N1CC[C@H](C(=O)N(C)[C@H](C(=O)N[C@H]2C[C@H]3CN(CCO3)c3ccc4c(c3)c(c(-c3cccnc3COC)n4CC)CC(C)(C)COC(=O)[C@@H]3CCCN(N3)C2=O)C(C)C)C1 [Example A240]	> 1000 nM	1000 to 10000 nM	> 10000 nM	> 10000 nM	> 10000 nM	> 10000 nM	> 10000 nM	1000 to 10000 nM	> 10000 nM	> 10000 nM	> 10000 nM
CCn1c(-c2cccnc2[C@H](C)OC)c2c3cc(ccc31)N1CCO[C@@](C)(C[C@H](NC(=O)[C@H](C(C)C)N(C)C(=O)C3(F)CCN(C(=O)C#CC(C)(C)N(C)C)CC3)C(=O)N3CCC[C@H](N3)C(=O)OCC(C)(C)C2)C1 [Example A550]	< 10 nM	< 10 nM	1000 to 10000 nM	1000 to 10000 nM	100 to 1000 nM	100 to 1000 nM	1000 to 10000 nM	< 10 nM	1000 to 10000 nM	1000 to 10000 nM	100 to 1000 nM
C=CC(=O)N1CCO[C@H]2CN(C(=O)N(C)[C@H](C(=O)N[C@H]3C[C@H]4CN(CCO4)c4ccc5c(c4)c(c(-c4cccnc4[C@H](C)OC)n5CC)CC(C)(C)COC(=O)[C@@H]4CCCN(N4)C3=O)C(C)C)C[C@H]21 [Example A562]	100 to 1000 nM	100 to 1000 nM	1000 to 10000 nM	1000 to 10000 nM	1000 to 10000 nM	1000 to 10000 nM	1000 to 10000 nM	100 to 1000 nM	> 10000 nM	1000 to 10000 nM	1000 to 10000 nM
